Consider 2 compounds from publication PMC11833736 (ACS Pharmacology & Translational Science, 2025).

Each structure is given as a SMILES string. Values joined by “and” are separate entries in the source; they are usually repeats but may differ in a detail not shown here. Equal entries are not always repeated. Where only a bound is given, the exact number is not on record here.

In one data set the test system is U-87MG cells. As to the kind of experiment: Cell fractioning (FractionPREP kit), Ru content by ICP-MS. The settings on record: 10 μM, 24 h. Format: in vitro ADME. The protocol:
Ru content in different compartments was determined via a FractionPREP Cell Fractionation Kit (Abcam, Cambridge, U.K., no 288085). U-87MG cells were seeded in 25 cm^2 OptiMEM medium (1.5 × 10^6 cells) for 24 h. […] Untreated cells served as control. After 24 h of incubation, the cells were collected, counted, and fractioned according to the manufacturer’s procedure. In short, the cells were collected and centrifuged at 700g for 5 min. The cells were then washed with ice-cold PBS (1 mL) followed by 5 min centrifuging at 700g, and the supernatant was removed. The cell pellet was resuspended in 1 mL of ice-cold PBS, transferred into a 1.5 mL Eppendorf tube, and spun for 5 min at 700g, and the supernatant was removed. The pellet was resuspended in 400 μL of Extraction Buffer III/Cytosol Extraction Buffer Mix [containing 2 μL of dithiothreitol (DTT) and 2 μL of protease inhibitor cocktail per mL]. The cells were mixed well by carefully pipetting up and down (ca. 5 times). The sample was incubated on ice for 20 min with gentle tapping three to four times every 5 min. Afterward, the sample was centrifuged at 700g for 10 min. The supernatant was collected (cytosolic fraction) and kept on ice. The resulting pellet was again resuspended in 400 μL of ice-cold Extraction Buffer IV/Membrane Extraction Buffer-A Mix (containing 2 μL of DTT and 2 μL of protease inhibitor cocktail per mL) and pipetted several times, and the sample was vortexed for 10–15 s to mix well. Then, 22 μL of Lysis Buffer/Membrane Extraction Buffer-B was added and vortexed for 5 s. The samples were incubated for 1 min on ice. Afterward, the sample was vortexed again for 5 s and centrifuged for 5 min at 1000g. The supernatant was immediately transferred to a clean, prechilled 1.5 mL tube and kept on ice (membrane fraction). The pellet was again resuspended in 200 μL of ice-cold Extraction Buffer V/Nuclear Extraction Buffer mix (containing 2 μL of DTT and 2 μL of protease inhibitor cocktail per mL), vortexed for 15 s, and kept on ice for 40 min with constant vortex for 15 s every 10 min. The sample was then microcentrifuged at top speed for 10 min. The resulting supernatant was transferred in a clean, prechilled 1.5 mL tube (nuclear fraction) and kept on ice. The remaining cytoskeletal fraction was dissolved in 100 μL of 0.2% SDS containing 10 mM DTT solution. All samples were digested over 65% HNO3 (0.5 mL) in an oven hot oven (90 °C). The solution was diluted with Milli-Q water to 10 mL, and the Ru content [ppb] was measured by ICP-MS.

Another data set concerns SH-SY5Y cells. Description: Ru cellular uptake by ICP-MS, dark or green light. Format: in vitro ADME. The settings on record: kept in the dark. The protocol:
These surprising results led us to further investigate whether the uptake of the respective compounds plays a pivotal role in the alternation of the proliferation. […] The complex was allowed to incubate for 24 h after irradiation before the ruthenium cellular content was analyzed by ICP-MS. […] We finally decided to incubate the SH-SY5Y cells with the EC50 values obtained from the cytotoxicity experiment using the U-87MG cell, as those procedures would allow one to observe the effect of the prodrug on the healthy neuron-like cells when treated with the phototoxic compound dose. […] Overall, cellular uptake in neuron-like SH-SY5Y cells followed the same trends as those for GBM cells U-87MG in the dark, while uptake was much higher after light activation.
1 mL of SH-SY5Y cells were seeded in 12-well plates (Greiner, No. 665180; 500.000 cells per well). […] After an additional 24 h of incubation, the cells were trypsined, collected, and centrifuged. The resulting cell pellet was dissolved in 1 mL of PBS and counted via a BioRad TC20 automated cell counter. Afterward, the solution was centrifuged and washed again with PBS with subsequent centrifuging two more times. The resulting cell pellet was digested in 0.5 mL of HNO3 overnight in a hot oven (90 °C). The solution was diluted with Milli-Q water to 10 mL, and the Ru and Ca content [ppb] was measured via ICP-MS.

In the next data set the target is AChE (Electrophorus electricus, UniProt O42275). The settings on record: for PI: AChE, IC50 dark / IC50 green light; for IC50: read-out: IC50,D, isolated AChE, 30 min in the dark, read 35 min after DTNB addition. The source says: Among all enzymes involved in transmembrane signaling, another important one is AChE. In a modified procedure (for further details, see the Experimental Section), we checked whether the ruthenium complexes were able to inhibit AChE in the dark and after light activation. The colorimetric assay used Ellman’s reagent. […] The conversion of 5,5′-dithiobis(2-nitrobenzoic acid) (DTNB) to yellow 2-nitro-5-thiobenzoate (TNB) initiated by the addition of acetylthiocholine was then detected by UV–vis spectroscopy every 5 min for a total time of […]. […] The solution was further diluted 1:50 in 50 mM Tris buffer, pH = 8 (10 μL in 490 μL), and then placed in 4.5 mL of 50 mM Tris buffer, pH = 8. […] 50 μL of the enzyme and 50 μL of the complex solution were added to a 96-well plate in triplicates. […] Meanwhile, a 10 mM solution of acetylthiocholine iodide and 10 mM DTNB was prepared. After the respective time, in each well, 5 μL of the acetylthiocholine iodide and DTNB mixture was added. The absorbance was read at a microplate Tecan reader at 410 nm every 5 min for in total 40 min.

The nature of data set [1]: Stability in the dark in the presence of L-glutathione (UV-vis). In kind it is physicochemical. The settings on record: water, 37 °C, 500 μM L-glutathione, spectra after 2 and 24 h. As to the method: The synthesis and characterization of all three complexes have been described earlier and can be found in refs ([56]) and ([57]). In water or OptiMEM cell medium, the complexes were also previously found to be stable in the dark for at least 24 h at 37 °C. Upon blue or green light irradiation (λ = 452 or 517 nm), they are activated by photosubstitution of the thioether ligand to afford the aqua ruthenium complex and the free thioether ligand.[56] […] The UV–vis spectra were then recorded after 2 and 24 h separately. […] Additionally, we could not observe any color change, which is typical when one of the ligands is exchanged against another one.
UV–vis spectroscopy experiments were performed on a Cary 60 Varian spectrometer equipped with a temperature control set to 310 K and a magnetic stirrer. The measurements were performed in a quartz cuvette containing 3 mL of solution. […] Then, the UV–vis spectrum was recorded without the presence of GSH. After 4 min, GSH was added (0.5 mM) and UV–vis spectra were recorded directly after and after 2 and 24 h, while the vial was kept in the dark and at 37 °C.

The conditions of data set [2]: cited from earlier work.
Data set [3] concerns U-87MG glioblastoma cells. As to the kind of experiment: Cytotoxicity, SRB end-point assay, dark or green light. The settings on record: read-out: EC50,D, kept in the dark, 24 h + 48 h incubation, normoxic (21% O2).

Chain of AChE (O42275 24-633): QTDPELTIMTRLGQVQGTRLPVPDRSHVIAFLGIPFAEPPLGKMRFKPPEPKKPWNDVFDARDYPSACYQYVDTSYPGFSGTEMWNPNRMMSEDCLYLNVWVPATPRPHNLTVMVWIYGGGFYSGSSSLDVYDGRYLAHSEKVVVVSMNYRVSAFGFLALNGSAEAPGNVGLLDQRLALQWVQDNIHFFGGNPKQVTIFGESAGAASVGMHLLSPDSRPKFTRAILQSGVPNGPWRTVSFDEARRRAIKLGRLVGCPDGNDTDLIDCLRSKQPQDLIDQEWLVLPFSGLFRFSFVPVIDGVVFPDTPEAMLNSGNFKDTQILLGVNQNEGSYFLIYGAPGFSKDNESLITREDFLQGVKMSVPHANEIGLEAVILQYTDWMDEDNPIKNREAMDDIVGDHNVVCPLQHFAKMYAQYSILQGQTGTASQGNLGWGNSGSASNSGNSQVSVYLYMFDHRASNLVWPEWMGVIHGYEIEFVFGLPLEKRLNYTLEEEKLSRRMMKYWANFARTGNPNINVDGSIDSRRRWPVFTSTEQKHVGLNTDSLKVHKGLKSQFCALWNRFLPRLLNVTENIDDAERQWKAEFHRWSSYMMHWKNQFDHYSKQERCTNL

Take `CSCCO.F[P-](F)(F)(F)(F)F.F[P-](F)(F)(F)(F)F.[Ru+2].c1ccc(-c2cccc(-c3ccccn3)n2)nc1.c1ccc2cc(-c3cc4ccccc4cn3)ncc2c1` [[2](PF6)2]: in the data set with U-87MG cells, the “Ru content, Cytosol” value was 0.18 ng Ru/mio. cells and 0.18 ± 0.06 ng Ru/mio. cells; the “Ru content, Membrane” value is 0.83 ng Ru/mio. cells and 0.83± 0.57 ng Ru/mio. cells; the “Ru content, Nucleus” value is recorded as 0.03 ± 0.03 ng Ru/mio. cells. Moreover, in the data set with SH-SY5Y cells (20 μM), the “Ru uptake, Dark” value was 1.02 ± 0.63 ng Ru/mio. cells and 1.0 ng Ru/mio. cells. In addition, on AChE, the PI is listed as above 1.5 and the IC50 was above 15 µM. Also, the “stability in the dark with GSH (UV-vis, in words)” value in data set [1] is reported as “no isosbestic points suggesting ligand exchange were observed”. Besides, in data set [2], the LogP is recorded as 3.08. Also, the EC50 in data set [3] was 19 µM and 19.4 µM.
`CSCCO.F[P-](F)(F)(F)(F)F.F[P-](F)(F)(F)(F)F.[Ru+2].c1ccc(-c2cccc(-c3ccccn3)n2)nc1.c1ccc2cc(Nc3cc4ccccc4cn3)ncc2c1` [[3](PF6)2]: in the data set with U-87MG cells, the “Ru content, Cytosol” value was 0.07 ± 0.05 ng Ru/mio. cells; the “Ru content, Membrane” value was 0.88 ng Ru/mio. cells and 0.88 ± 0.25 ng Ru/mio. cells; the “Ru content, Nucleus” value was 0.17 ng Ru/mio. cells and 0.17 ± 0.06 ng Ru/mio. cells. Further, the “Ru uptake, Dark” value with SH-SY5Y cells (10 μM) is 2.44 ± 0.63 ng Ru/mio. cells and 2.4 ng Ru/mio. cells. Moreover, on AChE, the PI is on record as 2 and the IC50 came out at 9.6 µM. In addition, in data set [1], the “stability in the dark with GSH (UV-vis, in words)” value was “no isosbestic points suggesting ligand exchange were observed”. Also, in data set [2], the LogP was 2.92. For the same compound, the EC50 in data set [3] is 37 µM.

A word on the IC50: it is the concentration that inhibits the measured activity by half. Broadly, the LogP is the decadic logarithm of the partition coefficient of the neutral form, usually between octanol and water. Usually EC50 stands for the concentration at which the effect is half-maximal.
